Assays:
[1] = test system: Ca9-22, HSC-2 and HSC-4 cells; assay: Average over Ca9-22, HSC-2 and HSC-4 neoplastic cells; format: cell-based, human; details: for CC50: Homo sapiens, average of Ca9-22, HSC-2 and HSC-4, read-out: Average CC50; for Average SI: average of SI for Ca9-22, HSC-2 and HSC-4
Protocol: In order to assess whether the compounds in series 3 and 4 are more toxic to neoplasms than non-malignant cells, selective index (SI) figures were calculated. In the in vivo situation, a tumour is surrounded by a number of non-malignant cells.
In order to identify the most promising lead compounds in terms of both cytotoxic potencies and favourable SI values, potency–selectivity expression (PSE) values were computed. […] Outstanding results may be noted for four compounds that have PSE values in excess of 100,000 namely 3d, 4c–e. […] However, the relative SI/PSE distribution patterns between series 3 and 4 (from a to h) are nearly superimposable with each other (Figure 3). […] It has been reported that 3,5-bis(3-iodo-5-methoxy-4-propoxybenzylidene)-N-acetylpiperidin-4-one inhibited tubulin and destabilization of microtubules, while 3,5-bis(3,4,5-trimethoxybenzylidene)-N-benzoylpiperidin-4-one destabilizes the microtubules. Thus, it remained to investigate whether compound 4d acts as an inhibitor of the microtubule.
(§1) A literature procedure was followed when the compounds in series 3 and 4 were evaluated against three human oral squamous cell carcinoma cell lines Ca9-22 (RCB-1976), HSC-2 (RCB1945), HSC-4 (RCB1902) (purchased from RIKEN Cell Bank, Tukuba, Japan) and three human normal oral cells, gingival fibroblast (HGF), periodontal ligament fibroblast (HPLF) and pulp cells (HPC) (established according to the guideline of the intramural ethic committee, A0808) except the duration of incubation was increased from 24 h to 48 h. In brief, various concentrations of the compounds were added to the DMEM media, which was supplemented by 10% heat-inactivated fetal bovine serum. Incubation was undertaken at 37 °C. At the completion of the experiment, cell viability was determined by the MTT method.

[2] = Cytotoxicity against non-malignant HPLF cells, MTT method, 48 h; format: cell-based; details: human, periodontal ligament fibroblasts (HPLF)
Protocol: as §1

[3] = test system: Ca9-22 cells; assay: Cytotoxicity against Ca9-22 cells, MTT method, 48 h; format: cell-based, human; details: for CC50: Homo sapiens, Ca9-22, concentration required to kill 50% of the cells, 48 h, MTT, read-out: CC50 Ca9-22; for SI Ca9-22: average CC50 towards HGF, HPLF, HPC divided by CC50 against Ca9-22
Protocol: as §1

[4] = Average over HGF, HPLF and HPC non-malignant cells; format: cell-based; details: human, HPLF and HPC non-malignant cells (average of the three)
Protocol: as §1

[5] = test system: CEM T-lymphoblastic leukemia cells; assay: Cytotoxicity against CEM cells, MTT method, 24 h; format: cell-based; details: Homo sapiens, CCRF-CEM, concentration required to inhibit cell growth by 50%
Protocol: The method used for the evaluation of various compounds against human CEM cells has been reported previously. In brief, cells were grown in RPMI-1640 medium supplemented with 10% heat-inactivated fetal bovine serum. Different concentrations of compounds were added to the media, and after 24 h incubation, cytotoxicity was measured by the MTT method.

[6] = Cytotoxicity against non-malignant HGF cells, MTT method, 48 h; format: cell-based; details: human, gingival fibroblasts (HGF)
Protocol: as §1

[7] = test system: HSC-4 cells; assay: Cytotoxicity against HSC-4 cells, MTT method, 48 h; format: cell-based, human; details: for CC50: Homo sapiens, HSC-4, concentration required to kill 50% of the cells, 48 h, MTT, read-out: CC50 HSC-4; for SI HSC-4: average CC50 towards HGF, HPLF, HPC divided by CC50 against HSC-4
Protocol: as §1

[8] = test system: HSC-2 cells; assay: Cytotoxicity against HSC-2 cells, MTT method, 48 h; format: cell-based, human; details: for CC50: Homo sapiens, HSC-2, concentration required to kill 50% of the cells, 48 h, MTT; for SI HSC-2: average CC50 towards HGF, HPLF, HPC divided by CC50 against HSC-2
Protocol: as §1

[9] = Cytotoxicity against non-malignant HPC cells, MTT method, 48 h; format: cell-based; details: human, pulp cells (HPC)
Protocol: as §1

[10] = test system: HCC-2998 cells; assay: NCI in vitro screen, colon cancer HCC-2998; format: cell-based; details: Homo sapiens
Description: (§2) One particular reference drug is 5-fluorouracil, which is used in treating colon cancers.

[11] = test system: HT29 cells; assay: NCI in vitro screen, colon cancer HT29; format: cell-based; details: Homo sapiens, HT-29
Description: as §2

[12] = test system: Colo205 cells; assay: NCI in vitro screen, colon cancer Colo205; format: cell-based; details: Homo sapiens, COLO 205
Description: as §2

[13] = test system: RPMI-8226 cells; assay: NCI in vitro screen, leukemia RPMI-8226; format: cell-based; details: Homo sapiens
Description: (§3) In view of the encouraging result with CEM leukemic cells, consideration was given to an assessment in the NCI in vitro screening program. The oximes, but not the quaternary ammonium salts, were accepted for bioevaluation. Examination of the mean graphs confirms the sensitivity of leukemic cells to these compounds.

[14] = test system: HL-60 (TB) cells; assay: NCI in vitro screen, leukemia HL-60 (TB); format: cell-based; details: Homo sapiens
Description: as §3

[15] = test system: HCT-116 cells; assay: NCI in vitro screen, colon cancer HCT-116; format: cell-based; details: Homo sapiens
Description: as §2

[16] = test system: leukemia cells; assay: NCI in vitro screen, average of leukemia cells; format: cell-based; details: Homo sapiens
Description: as §3

[17] = test system: K-562 cells; assay: NCI in vitro screen, leukemia K-562; format: cell-based; details: Homo sapiens, K562
Description: as §3

[18] = test system: HCT-15 cells; assay: NCI in vitro screen, colon cancer HCT-15; format: cell-based; details: Homo sapiens
Description: as §2

[19] = test system: SW-620 cells; assay: NCI in vitro screen, colon cancer SW-620; format: cell-based; details: Homo sapiens
Description: as §2

[20] = test system: SR cells; assay: NCI in vitro screen, leukemia SR; format: cell-based; details: Homo sapiens
Description: as §3

[21] = test system: KM12 cells; assay: NCI in vitro screen, colon cancer KM12; format: cell-based; details: Homo sapiens
Description: as §2

[22] = test system: All Cell Lines; assay: NCI in vitro screen, all cell lines; format: cell-based; details: Homo sapiens
Description: as §2

[23] = test system: colon cancer cells; assay: NCI in vitro screen, average of colon cancer cells; format: cell-based; details: Homo sapiens
Description: as §2

[24] = test system: Molt-4 cells; assay: NCI in vitro screen, leukemia Molt-4; format: cell-based; details: Homo sapiens
Description: as §3

| Compound | CC50 [1] [nM] | Average SI [1] | CC50 at 48 h [2] [nM] | CC50 [3] [nM] | SI Ca9-22 [3] | CC50 at 48 h [4] [nM] | IC50 [5] [nM] | CC50 at 48 h [6] [nM] | CC50 [7] [nM] | SI HSC-4 [7] | CC50 [8] [nM] | SI HSC-2 [8] | CC50 at 48 h [9] [nM] | further results |
| --- | --- | --- | --- | --- | --- | --- | --- | --- | --- | --- | --- | --- | --- | --- |
| Cc1ccc(/C=C2\CN(C(=O)CC[N+]3(C)CCC(=NO)CC3)C/C(=C\c3ccc(C)cc3)C2=O)cc1 (stereo not shown) [Compound 4f, (3~{E},5~{E})-3,5-bis[(4-methylphenyl)methylene]-1-[3-(4-hydroximino-1-piperidyl)propanoyl]piperidin-4-one methiodide] | 350 | 32.6 | 8370 ± 810 | 180 ± 20 | 53.1 | 9560 | 4180 ± 650 | 5120 ± 240 | 400 ± 230 | 23.9 | 460 ± 100 | 20.8 | 15200 ± 1900 |  |
| COc1cc(/C=C2\CN(C(=O)CCN3CCC(=NO)CC3)C/C(=C\c3cc(OC)c(OC)c(OC)c3)C2=O)cc(OC)c1OC [Compound 3h, (3~{E},5~{E})-1-[3-(4-hydroximino-1-piperidyl)propanoyl]-3,5-bis[(3,4,5-trimethoxyphenyl)methylene]piperidin-4-one] | 200 | 22.5 | 5220 ± 690 | 70 ± 30 | 43.9 | 3070 | 2310 ± 300 | 2180 ± 230 | 300 ± 150 | 10.2 | 230 ± 20 | 13.4 | 1800 ± 600 | IC50 [10]: 210 nM; IC50 [11]: 330 nM; IC50 [12]: 260 nM; IC50 [13]: 320 nM; IC50 [14]: 270 nM; IC50 [15]: 210 nM; IC50 [16]: 300 nM; IC50 [17]: 320 nM; IC50 [18]: 1230 nM; IC50 [19]: 300 nM; IC50 [20]: 300 nM; IC50 [21]: 200 nM; IC50 [22]: 1220 nM; IC50 [23]: 390 nM; IC50 [24]: 290 nM |
| COc1cc(/C=C2\CN(C(=O)CC[N+]3(C)CCC(=NO)CC3)C/C(=C\c3cc(OC)c(OC)c(OC)c3)C2=O)cc(OC)c1OC (stereo not shown) [Compound 4h, (3~{E},5~{E})-1-[3-(4-hydroximino-1-piperidyl)propanoyl]-3,5-bis[(3,4,5-trimethoxyphenyl)methylene]piperidin-4-one methiodide] | 160 | 11.6 | 1320 ± 40 | 70 ± 10 | 20.4 | 1430 | 5120 ± 140 | 620 ± 60 | 180 ± 40 | 7.94 | 220 ± 40 | 6.50 | 2350 ± 820 |  |
| C[N+]1(CCC(=O)N2C/C(=C\c3ccc([N+](=O)[O-])cc3)C(=O)/C(=C/c3ccc([N+](=O)[O-])cc3)C2)CCC(=NO)CC1 (stereo not shown) [Compound 4e, (3~{E},5~{E})-1-[3-(4-hydroximino-1-piperidyl)propanoyl]-3,5-bis[(4-nitrophenyl)methylene]piperidin-4-one methiodide] | 40 | 60.0 | 2590 ± 270 | 20 | 104 | 2070 | 870 ± 20 | 1150 ± 350 | 60 ± 10 | 34.5 | 50 ± 10 | 41.4 | 2460 ± 1230 |  |

— publication PMC8659243, “Design, Synthesis and Tumour-Selective Toxicity of Novel 1-[3-{3,5-Bis(benzylidene)-4-oxo-1-piperidino}-3-oxopropyl]-4-piperidone Oximes and Related Quaternary Ammonium Salts” (Molecules, 2021)
